Several values for one entry are separate records, joined by “and”; a condition that tells them apart may be missing. Equal values may be shown once. Read-outs that look alike come from different tables or passages of the source. Marks after values point to notes of the source that are not given here.
Columns and labels:
[1] = molecular target: T1, APP-E2 (Homo sapiens, UniProt P05067); assay: CD-spectroscopy melting curves of APP-E2 at 222 nm; type: binding; conditions: 7.5 μM APP-E2, 10 μM metal; inflection point of CD melting curve at 222 nm
T1 construct: APP-E2 comprising Ser295-Asp500 (numbering according to APP695); hexa-histidine tag (C, cleaved yes); made in house; host or cells: E. coli BL21(DE3)pRIL
Protocol: CD-data were collected on a J-710 spectropolarimeter (Jasco Corporation) in the same buffers used for ITC binding studies adding 7.5 μM APP-E2 and 10 μM zinc or copper. CD-signals were measured at 222 nm upon heating (1° C./min) of the samples from 20° C. to 90° C. The blank signals produced by the buffers at 20° C. were subtracted as constant values from the melting curves. Indicated melting points correspond to the inflection points of the melting curves determined from the peak of the 1st order derivative calculated using spectra analysis software (Jasco Corporation).

[2] = molecular target: T1, APP-E2; assay: Metal retention assay (ultrafiltration); type: binding; conditions: 50 μM APP-E2, 75 μM metal, concentrated 8-fold
Protocol: 50 μM APP-E2 (without His-tag) and 75 μM CuCl2 in 50 mM Tris/HCl pH 7.3, 150 mM NaCl or 75 μM ZnCl2 in 20 mM Hepes/NaOH pH 7.3, 150 mM NaCl was concentrated 8-fold at 20° C. using Vivaspin 500 ultrafiltration devices with 5.000 MWCO PES membranes (Sartorius stedim biotech). Samples without protein, or containing 50 μM lysozyme instead of APP-E2, served as controls. Metal ions in the retenate were quantified by a spectrophotometric method (Sabel et al., 2010). Each experiment was performed in triplicate and the average ratio of the change in concentration relative to the starting concentration (c-c0/c0) was plotted.

[3] = molecular target: T1, APP-E2; assay: Determination of total Zn2+ binding sites on APP-E2
Protocol: The protein was saturated with 10 mM ZnCl2 in 20 mM Hepes/NaOH pH 7.3, 150 mM NaCl resulting in quantitative precipitated of the protein. The precipitate was washed with buffer until a stable equilibrium ratio of zinc saturated protein in the liquid phase and the solid phase was reached. The concentration of Zn (Sabel et al., 2010) and protein (Bradford, 1976) were determined after each wash step in the liquid phase (supernatant) after […] centrifugation at 16,000 g. The ratio between [Zn^2+] and [APP-E2] at equilibrium conditions corresponds to the total number of zinc binding sites per protein molecule, which was determined to be 4.3+/−0.2 (FIG. 10B). Subtraction of one strong intra-molecular binding site yields the number of intermolecular binding sites of as 3.3.

[4] = molecular target: T1, APP-E2; assay: Limited proteolysis with Trypsin; type: biochemical; conditions: 40 μM metal, 20 μM protein, 0.5 μg/ml Trypsin
Protocol: Limited proteolysis was performed in 20 mM HEPES, 150 mM NaCl at pH 7.4 containing 0.5 μg/ml Trypsin (Calbiochem) and 20 μM purified protein (α-casein as control). Copper or zinc were supplemented at 40 μM to the Samples. Reactions were stopped after 30 and […] by addition of 10 mM PMSF and analyzed by SDS-PAGE. Protease cleavage sites were characterized by Edman sequencing (Procise 494A, Applied Biosystems, Foster City, Calif., USA). Limited proteolysis results shown were reproduced in three independent experiments.

[5] = molecular target: T1, APP-E2; assay: Isothermal titration calorimetry (ITC) of metal binding to APP-E2; conditions: for n1: ITC stoichiometry, first site; for dH1: Cu in Tris, Zn in Hepes, pH 7.3
Protocol: ITC was performed at the same conditions as the metal retention assays in a NANO ITC calorimeter (TA Instruments, USA) adding 0.4 mM CuCl2 in 6 μl injections or 0.4 mM ZnCl2 in 11 μl injections to the cell containing 40 μM protein. Blank enthalphies for titrations of metals in buffer were subtracted from peak integrals. Binding constants were calculated with the NanoAnalyze program (TA Instruments, USA) using a model for a single set of identical binding sites in the case of copper binding. In the case of zinc binding the enthalpic data were fitted to a binding model representing two sets of independent binding sites, accounting for 1 strong binding site and 3.3 weak binding sites (4.3 total Zn^2+ sites) per protein molecule (for further details see supplementary data). All titrations were performed in triplicate. The initially determined KDapp of the APP-E2/Cu complex had to be corrected for competition with the copper ligand Tris (Hatcher et al., 2008) and its pH-dependent protonation. The exact coordination chemistry of Cu^2+ by Tris is, unfortunately, not precisely known, e.g. tertiary Cu(Tris)2 and quinary Cu(Tris)4 complexes are described in the literature. However, all models agree about the formation of a binary Tris-Cu^2+ complex, described by a formation constant pK1(Tris) of ˜4. The corrected KD was calculated according to KD=KDapp(1+ cTris×10^pK^1(Tris)/(1+10^−pH×Ka))^−1 using pK1(Tris)=3.82 (Canepari et al., 1999) and pKa(Tris)=8.1.
The effect of excessive zinc to protein ratios was studied in ITC experiments in three repeating titrations into the same cell solution. Titration was performed in 20 mM Hepes/NaOH pH 7.3, 150 mM NaCl at 20° C., adding a 0.8 mM ZnCl2 solution in 3×22 injections to 40 μM APP-E2, resulting in a final Zn^2+/protein ratio of 22. The molar ratios for titration experiment 2 and 3 were calculated neglecting intermixture of cell volume and slight volume changes occurring after refill of the syringe. Blank enthalphies for titrations of metals in buffer were subtracted from peak integrals.

[6] = molecular target: T2, full length APP (Homo sapiens, UniProt P05067); conditions: cited from earlier work
T2 construct: previously reported for full length APP (0.75 μM) (Bush et al., 1993)

[7] = molecular target: T1, APP-E2; assay: GPC and GPC coupled SLS, oligomerization state with heparin; type: binding; conditions: 50 μM APP-E2, 100 μM heparin; for MWSLS of APP-E2: GPC coupled SLS, absolute molecular weight; for MWrh of APP-E2: GPC, apparent molecular weight
Protocol: Analytical GPC and SLS studies were performed in 150 mM NaCl, 10 mM Sodium phosphate buffer, pH 7.3, on a calibrated (MWGF70, Sigma) Superdex200 10/300 GL column (GE Healthcare) using 50 μM APP-E2. Where applicable, a ˜3.6 kDa heparin preparation (Reviparin-Sodium, Abott) was added at 100 μM to the protein and the buffer. SLS data were recorded using VE 3580 RI and 270 Dual detectors (Viscotek, USA) and analyzed using software provided by the manufacturer. Given data represent average values±standard deviation of three independent experiments.

[8] = molecular target: the molecule itself; assay: gel permeation chromatography and GPC-coupled static light scattering, without and with low molecular weight heparin (self-association test)
Protocol: All intermolecular contacts identified in the crystals analysed with the PISA server (Krissinel and Henrick, 2007) result from crystal packing, evidenced by the calculated complexation significance scores (CSS) that are equal to 0. Consequently, the protomer contacts are predominantly stabilized by the intermolecular coordinated cadmium ions. […] To investigate this observation further, the apparent molecular weight was determined based on the hydrodynamic radius (MWᵣₕ) using gel permeation chromatography (GPC) as well as the absolute molecular weight (MWSLS) employing GPC coupled static light scattering (SLS; Supplementary Figure S2). […] The influence of heparin on the oligomerization state of the E2 domain, which was described to promote dimer formation (Lee et al., 2011), was tested.

T2 sequence (P05067 18-770, species assumed): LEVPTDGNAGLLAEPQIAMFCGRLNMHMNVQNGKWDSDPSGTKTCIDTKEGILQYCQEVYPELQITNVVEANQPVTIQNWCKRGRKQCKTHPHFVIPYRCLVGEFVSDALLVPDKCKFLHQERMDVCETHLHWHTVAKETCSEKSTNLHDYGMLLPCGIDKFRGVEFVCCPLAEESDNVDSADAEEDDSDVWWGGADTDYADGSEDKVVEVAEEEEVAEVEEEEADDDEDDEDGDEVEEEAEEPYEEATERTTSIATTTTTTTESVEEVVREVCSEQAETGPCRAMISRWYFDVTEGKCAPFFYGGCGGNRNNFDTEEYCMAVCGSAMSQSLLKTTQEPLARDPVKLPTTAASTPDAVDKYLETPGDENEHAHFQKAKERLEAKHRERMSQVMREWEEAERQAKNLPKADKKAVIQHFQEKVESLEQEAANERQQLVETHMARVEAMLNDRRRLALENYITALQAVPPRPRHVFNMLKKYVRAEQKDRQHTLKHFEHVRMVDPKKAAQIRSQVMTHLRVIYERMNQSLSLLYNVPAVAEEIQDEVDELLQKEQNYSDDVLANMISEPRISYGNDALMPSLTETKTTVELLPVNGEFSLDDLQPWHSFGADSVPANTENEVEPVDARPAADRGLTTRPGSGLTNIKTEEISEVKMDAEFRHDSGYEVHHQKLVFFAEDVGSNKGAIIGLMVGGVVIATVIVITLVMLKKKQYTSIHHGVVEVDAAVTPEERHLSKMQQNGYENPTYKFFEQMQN

Molecule: [Zn+2] [Zn^2+, zinc]
- melting temperature of APP-E2 [1]: 64.2±0.3 °C
- retention of metal ions upon APP-E2 concentration [2]: accumulated in the retenate
- total number of zinc binding sites per protein molecule ([3]; ratio [Zn2+]/[APP-E2] at equilibrium after wash steps): 4.3+/−0.2 and 4.3
- number of weak (intermolecular) zinc binding sites ([3]; total minus one strong intramolecular site): 3.3
- effect on Trypsin cleavage of APP-E2 [4]: Trypsin cleavage at Arg385 completely disappeared
- exothermic zinc binding reaction with copper pre-saturated APP-E2 ([5]; ITC competition): completely missing
- n1 [5]: 0.7 ± 0.2
- Kd ([5]; ITC, 20 mM Hepes/NaOH pH 7.3, 150 mM NaCl, two sets of independent sites, strong site, listed as zinc, read-out: KD1, Zn-APP-E2): ≤ 3.9 µM
- Kd ([5]; ITC, 20 mM Hepes/NaOH pH 7.3, 150 mM NaCl, two sets of independent sites, strong site, read-out: KD1, Zn-APP-E2): 3.9 ± 1.5 µM
- Kd ([5]; ITC, Hepes pH 7.3, weak sites, not statistically significant in curve fit, listed as zinc, read-out: KD2, Zn-APP-E2): ≤ 2600 µM
- Kd ([5]; ITC, Hepes pH 7.3, weak sites, not statistically significant in curve fit, read-out: KD2, Zn-APP-E2): 2600 µM
- dH1 ([5]; ITC): -16.6 ± 0.6 kJ/mol
- n2 ([5]; weak sites, determined independently and fixed during curve fit): 3.3^b
- Kd ([6]; Bush et al., 1993, read-out: dissociation constant for full length APP (zinc)): 750 nM

Molecule: Reviparin-Sodium [HP]
- MWSLS of APP-E2 [7]: 31.6 ± 0.2 kDa
- MWSLS of APP-E2 ([7]; listed as Clivarin): 31.6 kDa
- MWrh of APP-E2 [7]: 39.2 ± 0.4 kDa
- MWrh of APP-E2 ([7]; listed as Clivarin): 39.2 kDa

Molecule: [Cu+2] [Cu^2+, copper]
- melting temperature of APP-E2 [1]: 61.0±0.0 °C
- retention of metal ions upon APP-E2 concentration [2]: accumulated in the retenate
- effect on Trypsin cleavage of APP-E2 [4]: stabilizes especially fragment 1
- n1 [5]: 0.70 ± 0.03
- dH1 ([5]; ITC): -19.9 ± 0.9 kJ/mol
- Kd ([5]; intersection point with the ordinate, 15-75 mM Tris, read-out: KD from linear extrapolation of apparent KD as function of Tris concentration): ~0.02 µM
- Kd ([5]; minimal model of a Cu2+-Tris 1:1 complex, upper (weakest) limit, listed as copper, read-out: KD corrected for Tris competition): ≤ 0.013 µM
- Kd ([5]; minimal model of a Cu2+-Tris 1:1 complex, upper (weakest) limit, read-out: KD corrected for Tris competition): < 0.013 µM
- Kd ([6]; Hesse et al., 1994, read-out: dissociation constant for full length APP (copper)): 10 nM

B1: APP-E2 comprising Ser295-Asp500 (numbering according to APP695) (other)
chain: STPDAVDKYLETPGDENEHAHFQKAKERLEAKHRERMSQVMREWEEAERQAKNLPKADKKAVIQHFQEKVESLEQEAANERQQLVETHMARVEAMLNDRRRLALENYITALQAVPPRPRHVFNMLKKYVRAEQKDRQHTLKHFEHVRMVDPKKAAQIRSQVMTHLRVIYERMNQSLSLLYNVPAVAEEIQDEVDELLQKEQNYSDD
notes: The C-terminal His tag was cleaved for the biochemical studies; also called E2 domain; human APP-E2 domain; not shown: a few non-native C-terminal residues left after the hexa-histidine tag was cleaved off (factor Xa or V8 protease); their
- binding result [8]: no binding (tested: 50 µM APP-E2)

From patent US20130052654A1, “Amyloid Precursor Protein E2 Domain and Uses Thereof” (Leibniz Institute For Age Research - Fritz Lipmann …, priority 2011, published 2013)
